{
  "source": "patent US11661399B2",
  "about": "“Methods and compositions for preventing degradation of dimethyl trisulfide” (priority 2018, dated 2023)",
  "key": {"[1]": {"experiment": "DMTS degradation over 14 days at 54° C. (gas chromatograph, Day 0 vs Day 14)", "type": "physicochemical", "settings": "water + MDEA, pH lowered to 2, two weeks at 54° C.", "method": "(§1) EPA accelerated stability guidelines call for storage of compositions at 54° C. for two weeks. This is considered to be the equivalent to storing compositions for one year at room temperature. These conditions were applied to the following studies to ensure that DMTS can be formulated in compliance with EPA guidelines.\nIn this example, various concentrations of DMTS in water, ethanol (EtOH), and propylene glycol (PG), with and without MDEA, were prepared and tested for degradation. The pH was adjusted to 2, 7, or 12+/−0.5 with sodium hydroxide or hydrochloric acid. The DMTS concentration was measured by gas chromatograph on Day 0 and Day 14 and the percent degradation calculated from those values. The formulas were capped and stored at 54° C. for two weeks."}, "[2]": {"experiment": "Accelerated stability storage: DMTS recovery over time in solution", "type": "physicochemical", "settings": "for DMTS degraded: 14 days at 54° C.", "method": "as §1\n120 ppm DMTS only is compared to 120 ppm DMTS with 420 ppm MDEA. Using the accelerated conditions described above, DMTS in water was still observed to be degrading over time.\nVarious conditions were modified to improve the overall stability of DMTS in solution. First, the pH was lowered by buffering the solution. It was predicted that a lower pH might prevent the catalyzation of DMTS breakdown. The solution was buffered to a pH of 6 and compared to a control. 32 ppm DMTS was stored in glass at 40° C. for 7 days, then stored at 54° C. for an additional 15 days.\nDMDS was added to the DMTS in this example. It was hypothesized that if the breakdown pathway of DMTS to DMDS exists in equilibrium, additional DMDS would stabilize the breakdown pathway. DMDS was added to formulas containing DMTS only and DMTS with MDEA.\nIt was hypothesized that propylene glycol (PG) could have a similar effect. Samples were prepared with 8 ppm and 4 ppm DMTS in water as controls. Experimental samples included 8 ppm DMTS with 1% PG or 10% PG. A sample was also prepared in an HDPE container that was not fluorinated.\nThis example examined the effects of fluorination of HDPE containers on the stability of DMTS. Stability of DMTS was recorded for storage at 54° C. over the course of 14 days. Glass containers were used as a control. HDPE containers were tested having no fluorination (F0), Level 3 fluorination (F3), and Level 5 fluorination (F5). Samples of DMTS were prepared to a dilution of 8 ppm DMTS in water with 10% PG.\nGiven the improvements seen with 10% PG used as solvent, higher concentrations of PG were tested. 0.28% DMTS in 100% PG was tested for stability over two weeks at 54° C. Storage in glass containers was compared to HDPE containers with Level 3 fluorination.\nOther solvents were tested without dilution with water. Samples of 0.03% DMTS were prepared in 100% solvent. The solvents tested were ethanol in a glass container, PG in a glass container, PG in a non-fluorinated HDPE container, and glycerol in a glass container.\nIn this example, 0.03 wt-% (300 ppm) DMTS was dissolved into solvent consisting of 100% ethanol (EtOH) or 100% propylene glycol (PG). This study is very similar to Example 7. Recovery of DMTS was recorded over the course of 14 days. The DMTS solutions were stored in the accelerated conditions of 54° C. Less than 10% DMTS was degraded over the course of 14 days for both EtOH and PG.\nIn this example, a lower concentration of DMTS was used to produce a use composition. 32 ppm DMTS was dissolved in either a 100% water solution or a combination of 10% PG and 90% water. The same accelerated conditions were used for 14 days. Over 70% of DMTS was recovered with water as the only solvent. However, using a 10% PG solution in water improved DMTS stability, providing greater than 80% recovery.\nEven lower concentrations of DMTS were examined to determine if further dilution of the concentrate affects stability of DMTS. Solutions including 8 ppm DMTS were prepared. DMTS was dissolved in water, a solution of 1 wt-% PG in water, and a solution 10 wt-% PG in water. […] The reduced quantity of DMTS did have a slight negative effect on stability.\nFinally, solutions including 1 ppm DMTS were examined to determine if use compositions including small amounts of DMTS can remain stable over the course of the two week testing period at 54° C. […] Hard water had the greatest negative effect on DMTS stability."}},
  "data": [
    {"compound": "CSSSC", "note": "[DMTS, dimethyl trisulfide]", "values": [
      {"measurement": "DMTS degraded", "setting": "[1]", "result": 20, "unit": "%"},
      {"measurement": "DMTS remaining in solution", "setting": "[2]; 1 ppm DMTS in hard water, day 14, 54° C.", "result": "no DMTS remained"},
      {"measurement": "DMTS stability (in words)", "setting": "[2]; 8 ppm DMTS in water with 10% PG, HDPE Level 5 fluorination (F5), 54° C., 14 days", "result": "best results which were similar to the glass containers"},
      {"measurement": "DMTS degradation (in words)", "setting": "[2]; 8 ppm DMTS in water with 10% PG, non-fluorinated HDPE (F0), 54° C., 14 days", "result": "fastest rates of DMTS degradation"},
      {"measurement": "DMTS stability (in words)", "setting": "[2]; 8 ppm DMTS with 1% PG or 10% PG vs water controls", "result": "Some improvement"},
      {"measurement": "DMTS recovered", "setting": "[2]; 32 ppm DMTS in 100% water, 14 days accelerated conditions", "result": "Over 70%"},
      {"measurement": "DMTS degradation (in words)", "setting": "[2]; 32 ppm DMTS in solution with ethanol, glass, 40° C. 7 days then 54° C. 15 days", "result": "least degradation"},
      {"measurement": "DMTS stability (in words)", "setting": "[2]; 32 ppm DMTS, N2 blanket and soft water samples, glass, 40° C. 7 days then 54° C. 15 days", "result": "least stable conditions"},
      {"measurement": "DMTS breakdown (in words)", "setting": "[2]; 32 ppm DMTS, pH 6 buffer, glass, 40° C. 7 days then 54° C. 15 days", "result": "faster breakdown than the control"},
      {"measurement": "DMTS degradation over time (in words)", "setting": "[2]; 120 ppm DMTS only in water vs 120 ppm DMTS with 420 ppm MDEA, accelerated conditions", "result": "degradation was slowed significantly"},
      {"measurement": "DMTS degraded", "setting": "[2]; 300 ppm DMTS in 100% EtOH", "result": "Less than 10%"},
      {"measurement": "DMTS degraded", "setting": "[2]; 300 ppm DMTS in 100% PG", "result": "Less than 10%"},
      {"measurement": "DMTS breakdown (in words)", "setting": "[2]; DMDS added to DMTS only and DMTS with MDEA formulas", "result": "did not slow down the breakdown of DMTS"},
      {"measurement": "DMTS degradation (in words)", "setting": "[2]; sample in non-fluorinated HDPE container, 54° C.", "result": "significantly faster degradation"}
    ]}
  ]
}
